How the values were obtained:
mTOR = biological target: T1, mTOR (Homo sapiens, UniProt P42345); test: mTOR kinobeads assay (dot blot detection); type: binding; conditions: Table 4, read-out: Inhibition values (IC50) mTOR
T1 construct: endogenous in cells; host or cells: Jurkat cells (ATCC TIB-152, clone E6-1), lysate
Summary of the method: (§1)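 Jurkat cell lysate (5 mg/ml protein) was incubated with test compounds and kinobeads (immobilized phenylthiazole and phenylmorpholin-chromen ligands) for 2 h in the cold with shaking. Bead-bound kinase was SDS-eluted and quantified by antibody dot blot with infrared detection. IC50 values came from dose-response curves.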

PI3K delta (PI3Kd) = biological target: T2, PI3K delta (PI3Kd) (Homo sapiens, UniProt O00329); test: kinobeads assay, PI3K delta (dot blot detection); type: binding; conditions: Table 4, read-out: Inhibition values (IC50) PI3Kd
T2 construct: endogenous in cells; host or cells: Jurkat cells (ATCC TIB-152, clone E6-1), lysate
Summary of the method: as §1

[1] = biological target: T3, DNA-dependent protein kinase (DNA-PK) (Homo sapiens, UniProt P78527); test: kinobeads assay, DNA-PK (dot blot detection); type: binding; conditions: Table 4, read-out: Inhibition values (IC50) DNAPK
T3 construct: endogenous in cells; host or cells: Jurkat cells (ATCC TIB-152, clone E6-1), lysate
Summary of the method: as §1

PI3Kα = biological target: T4, PI3Kα (Homo sapiens, UniProt P42336); test: kinobeads assay, PI3K alpha (dot blot detection); type: binding; conditions: Table 4, read-out: Inhibition values (IC50) PI3Ka
T4 construct: endogenous in cells; host or cells: Jurkat cells (ATCC TIB-152) lysate, the only lysate described

PI3Kβ = biological target: T5, PI3Kβ (Homo sapiens, UniProt P42338); test: kinobeads assay, PI3K beta (dot blot detection); type: binding; conditions: Table 4, read-out: Inhibition values (IC50) PI3Kb
T5 construct: endogenous in cells; host or cells: Jurkat cells (ATCC TIB-152) lysate, the only lysate described

PI3Kγ = biological target: T6, PI3Kγ (Homo sapiens, UniProt P48736); test: kinobeads assay, PI3K gamma (dot blot detection); type: binding; conditions: Table 4, read-out: Inhibition values (IC50) PI3Kg
T6 construct: endogenous in cells; host or cells: Jurkat cells (ATCC TIB-152) lysate, the only lysate described

[2] = system: S6RP serine-240/244 phosphorylation in HEK293T/17 cells; test: In vitro phospho-S6 cellular assay (pS6RP S240/244); type: cell-based; conditions: Homo sapiens, Table 6, 2 hours, S6RP Ser240/244, read-out: pS6 (phospho-S6 cell assay data, activity level)
Summary of the method: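 HEK293T/17 cells in DMEM with 2% FCS treated with 8 compound concentrations (0.1% DMSO) for 2 h at 37 °C, then lysed. Phospho-S6RP Ser240/244 or phospho-Akt Ser473 quantified by MesoScale sandwich immunoassay with Sulfo-Tag detection; IC50 from variable-slope sigmoidal fit.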

[3] = system: Akt serine-473 phosphorylation in HEK293T/17 cells; test: In vitro phospho-Akt cellular assay (pAkt S473); type: cell-based; conditions: Homo sapiens, Table 6, 2 hours, Akt Ser473, read-out: pAKT (Phospho-Akt cell assay data, activity level)
Source text: In Vitro Phospho-S6 and Phospho-Akt Cellular Assay
Activation of mTOR signaling results in phosphorylation of several downstream targets. In cells, mTOR exists in two different protein complexes. The mTOR Complex-1 (mTORC1) phosphorylates and activates S6 Kinase 1 (S6K1) and S6 Kinase 2 (S6K2) (also known as p70S6K) which then phosphorylate S6 Ribosomal Protein (S6RP) (also known as RPS6). S6RP is phosphorylated on serine 235, serine 236, serine 240 and serine 244 by both pS6K1 and pS6K2. The mTOR Complex-2 (mTORC2) phosphorylates AKT on serine 473 which activates the AKT signaling pathway.
The assay measures a test compound's inhibition of S6RP serine-240/244 phosphorylation and inhibition of Akt serine-473 phosphorylation in human embryonic kidney derived HEK293T/17 cells (ATCC CRL-11268).
The HEK293T/17 cell line is maintained in DMEM media (Invitrogen catalogue number 41965-039) supplemented with 10% FCS at 37° C. in a 5% CO2 humidified incubator.
Cells are seeded in 96-well plates at 40,000 cells/well (pS6RP S240/244 assay) or 80,000 cells/well (pAkt 5473 assay) in 90 μl growth media (DMEM, 2% FCS). Plates are incubated for 1 hour in a humidified incubator to allow the cells to adhere. Cells are treated with 8 concentrations of test compounds or DMSO alone for controls (final DMSO concentration 0.1%) and incubated at 37° C. for 2 hours. Then 20 μl of 5× concentrated lysis buffer (750 mM NaCl, 100 mM Tris pH7.4, 5 mM EDTA, 5 mM EGTA, 5% Triton X-100) is added, plates are sealed and incubated for 15 minutes at 4° C. with gentle shaking. After cell lysis, 25 μl cell lysate is transferred to a MesoScale plate coated with an antibody to pS6RP Ser240/244 (MesoScale Discovery K150DGD-3) or an antibody to pAkt Ser 473 (MesoScale Discovery K151DGD-3). Plates have been blocked before by incubation with 150 μl MesoScale Discovery Blocking Solution-A for 1 hour at room temperature followed by washing with 150 μl 1× Tris wash buffer per well. After the transfer of the cell lysate to the MSD plate, the pS6RP (or pAkt) protein is captured on the coated antibody by incubation at room temperature for 1 hour with gentle shaking. After the capture step the plate is washed three times with 150 μl of 1× Tris wash buffer per well. Then 25 μl detection antibody conjugated with a Sulfo-Tag is added and incubated for 1 hour at room temperature with gentle shaking. Subsequently the antibody solution is removed and the plate is washed 3 times with 150 μl 1× Tris wash buffer per well and 150 μl Read buffer is added. The plates are analysed on a MSD 2400 Plate Reader (MesoScale Discovery). Data analysis is performed using nonlinear regression for a sigmoidal dose-response with a variable slope.

T4 sequence (P42336 whole entry): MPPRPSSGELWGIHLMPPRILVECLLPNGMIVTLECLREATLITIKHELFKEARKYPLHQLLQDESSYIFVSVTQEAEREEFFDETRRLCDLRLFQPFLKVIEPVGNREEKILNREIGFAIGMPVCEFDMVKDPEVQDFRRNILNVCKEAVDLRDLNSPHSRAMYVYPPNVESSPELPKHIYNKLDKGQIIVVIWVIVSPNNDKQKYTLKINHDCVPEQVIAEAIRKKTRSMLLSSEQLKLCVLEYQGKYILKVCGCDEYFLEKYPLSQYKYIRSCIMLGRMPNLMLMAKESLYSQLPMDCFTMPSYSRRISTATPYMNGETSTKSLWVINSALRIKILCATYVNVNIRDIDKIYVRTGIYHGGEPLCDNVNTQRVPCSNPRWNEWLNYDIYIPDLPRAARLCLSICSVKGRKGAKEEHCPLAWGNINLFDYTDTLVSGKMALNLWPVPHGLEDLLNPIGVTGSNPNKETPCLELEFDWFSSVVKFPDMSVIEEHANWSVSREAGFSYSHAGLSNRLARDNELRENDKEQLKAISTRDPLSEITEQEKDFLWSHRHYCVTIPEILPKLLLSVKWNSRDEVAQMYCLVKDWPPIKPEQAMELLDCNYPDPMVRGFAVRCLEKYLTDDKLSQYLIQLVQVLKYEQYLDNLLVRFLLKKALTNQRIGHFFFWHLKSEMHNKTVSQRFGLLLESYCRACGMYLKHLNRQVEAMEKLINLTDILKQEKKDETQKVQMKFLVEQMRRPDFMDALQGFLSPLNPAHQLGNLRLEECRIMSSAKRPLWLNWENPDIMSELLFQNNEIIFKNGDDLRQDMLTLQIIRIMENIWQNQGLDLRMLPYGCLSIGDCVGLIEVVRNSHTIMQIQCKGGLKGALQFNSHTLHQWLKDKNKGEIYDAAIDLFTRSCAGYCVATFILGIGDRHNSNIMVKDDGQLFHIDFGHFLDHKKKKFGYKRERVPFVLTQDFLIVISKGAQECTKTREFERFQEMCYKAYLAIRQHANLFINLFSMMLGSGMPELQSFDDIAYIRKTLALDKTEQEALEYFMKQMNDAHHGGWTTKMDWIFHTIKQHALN
T4 sequence (P27986 whole entry partner): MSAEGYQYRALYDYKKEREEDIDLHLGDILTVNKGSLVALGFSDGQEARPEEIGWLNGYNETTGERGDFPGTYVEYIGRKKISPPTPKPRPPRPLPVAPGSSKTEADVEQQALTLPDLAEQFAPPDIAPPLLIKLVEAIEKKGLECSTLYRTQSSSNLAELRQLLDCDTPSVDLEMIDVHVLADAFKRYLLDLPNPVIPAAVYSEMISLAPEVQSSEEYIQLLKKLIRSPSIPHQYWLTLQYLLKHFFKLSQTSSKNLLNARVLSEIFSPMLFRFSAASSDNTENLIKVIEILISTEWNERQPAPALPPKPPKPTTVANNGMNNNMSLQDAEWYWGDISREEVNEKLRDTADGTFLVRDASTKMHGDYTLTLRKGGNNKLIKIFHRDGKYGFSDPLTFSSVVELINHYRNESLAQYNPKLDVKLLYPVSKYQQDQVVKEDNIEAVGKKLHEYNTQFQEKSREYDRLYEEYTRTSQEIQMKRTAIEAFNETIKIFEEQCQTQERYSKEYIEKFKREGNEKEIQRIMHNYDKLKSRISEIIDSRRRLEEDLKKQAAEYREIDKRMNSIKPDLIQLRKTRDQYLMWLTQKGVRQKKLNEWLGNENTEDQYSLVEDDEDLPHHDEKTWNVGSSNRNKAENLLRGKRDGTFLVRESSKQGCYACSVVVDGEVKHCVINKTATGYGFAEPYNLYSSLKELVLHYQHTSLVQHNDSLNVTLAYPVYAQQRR
T5 sequence (P42338 whole entry): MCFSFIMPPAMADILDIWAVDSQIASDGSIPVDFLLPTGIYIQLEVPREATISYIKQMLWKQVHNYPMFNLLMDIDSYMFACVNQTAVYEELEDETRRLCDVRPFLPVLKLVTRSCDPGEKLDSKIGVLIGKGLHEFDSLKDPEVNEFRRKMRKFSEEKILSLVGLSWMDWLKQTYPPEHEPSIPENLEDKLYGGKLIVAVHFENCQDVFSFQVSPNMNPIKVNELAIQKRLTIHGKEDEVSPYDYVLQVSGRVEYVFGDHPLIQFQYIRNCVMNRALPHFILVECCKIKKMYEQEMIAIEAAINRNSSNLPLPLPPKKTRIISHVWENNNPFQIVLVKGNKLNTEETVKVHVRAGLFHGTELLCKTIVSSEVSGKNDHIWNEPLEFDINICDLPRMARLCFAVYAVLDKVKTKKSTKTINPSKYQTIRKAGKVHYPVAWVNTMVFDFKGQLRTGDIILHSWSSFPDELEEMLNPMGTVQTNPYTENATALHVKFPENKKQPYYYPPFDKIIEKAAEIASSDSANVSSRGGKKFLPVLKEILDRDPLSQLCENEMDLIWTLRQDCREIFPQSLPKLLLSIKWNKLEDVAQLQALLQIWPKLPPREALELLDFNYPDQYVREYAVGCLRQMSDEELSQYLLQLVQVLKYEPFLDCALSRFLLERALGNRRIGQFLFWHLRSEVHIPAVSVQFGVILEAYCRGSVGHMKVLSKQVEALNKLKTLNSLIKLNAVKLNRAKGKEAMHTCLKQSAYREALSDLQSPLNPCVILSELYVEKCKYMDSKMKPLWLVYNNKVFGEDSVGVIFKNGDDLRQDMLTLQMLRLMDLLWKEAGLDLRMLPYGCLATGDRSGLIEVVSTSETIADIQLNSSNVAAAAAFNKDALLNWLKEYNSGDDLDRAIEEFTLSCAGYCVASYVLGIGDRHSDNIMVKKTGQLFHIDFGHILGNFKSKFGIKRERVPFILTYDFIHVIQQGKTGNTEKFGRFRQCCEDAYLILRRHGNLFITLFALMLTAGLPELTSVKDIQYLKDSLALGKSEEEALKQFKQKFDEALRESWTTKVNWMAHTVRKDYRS
T5 sequence (P27986 whole entry partner): as the sequence (P27986 whole entry partner) above
T2 sequence (O00329 whole entry): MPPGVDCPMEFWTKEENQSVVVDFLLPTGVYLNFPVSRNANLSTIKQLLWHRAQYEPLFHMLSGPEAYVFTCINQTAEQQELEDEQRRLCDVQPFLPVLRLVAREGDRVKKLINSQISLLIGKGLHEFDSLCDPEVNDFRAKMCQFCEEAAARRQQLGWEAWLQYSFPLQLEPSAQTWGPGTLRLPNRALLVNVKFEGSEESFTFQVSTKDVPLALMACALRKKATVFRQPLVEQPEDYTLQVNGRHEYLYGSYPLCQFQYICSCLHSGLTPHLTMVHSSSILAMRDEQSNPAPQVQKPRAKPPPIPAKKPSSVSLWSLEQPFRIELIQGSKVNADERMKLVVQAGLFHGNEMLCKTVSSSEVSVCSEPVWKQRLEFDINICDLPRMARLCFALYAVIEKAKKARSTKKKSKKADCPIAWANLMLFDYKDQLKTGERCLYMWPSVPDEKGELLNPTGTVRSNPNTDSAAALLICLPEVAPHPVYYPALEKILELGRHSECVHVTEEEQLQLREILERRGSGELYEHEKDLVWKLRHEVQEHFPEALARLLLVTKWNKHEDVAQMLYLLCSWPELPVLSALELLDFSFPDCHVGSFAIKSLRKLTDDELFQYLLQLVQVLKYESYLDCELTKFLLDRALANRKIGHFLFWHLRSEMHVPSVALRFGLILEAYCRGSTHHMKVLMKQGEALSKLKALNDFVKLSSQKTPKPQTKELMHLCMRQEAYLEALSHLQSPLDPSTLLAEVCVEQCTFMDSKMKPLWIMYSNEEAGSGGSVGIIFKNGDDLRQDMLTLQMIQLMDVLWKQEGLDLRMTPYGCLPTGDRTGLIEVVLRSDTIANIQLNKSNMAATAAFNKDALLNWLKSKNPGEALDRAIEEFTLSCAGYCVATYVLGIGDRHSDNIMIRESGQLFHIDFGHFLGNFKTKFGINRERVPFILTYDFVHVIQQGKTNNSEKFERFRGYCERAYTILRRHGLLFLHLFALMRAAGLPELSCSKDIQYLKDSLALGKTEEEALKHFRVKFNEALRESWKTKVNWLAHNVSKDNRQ
T2 sequence (P27986 whole entry partner): as the sequence (P27986 whole entry partner) above
T6 sequence (P48736 whole entry): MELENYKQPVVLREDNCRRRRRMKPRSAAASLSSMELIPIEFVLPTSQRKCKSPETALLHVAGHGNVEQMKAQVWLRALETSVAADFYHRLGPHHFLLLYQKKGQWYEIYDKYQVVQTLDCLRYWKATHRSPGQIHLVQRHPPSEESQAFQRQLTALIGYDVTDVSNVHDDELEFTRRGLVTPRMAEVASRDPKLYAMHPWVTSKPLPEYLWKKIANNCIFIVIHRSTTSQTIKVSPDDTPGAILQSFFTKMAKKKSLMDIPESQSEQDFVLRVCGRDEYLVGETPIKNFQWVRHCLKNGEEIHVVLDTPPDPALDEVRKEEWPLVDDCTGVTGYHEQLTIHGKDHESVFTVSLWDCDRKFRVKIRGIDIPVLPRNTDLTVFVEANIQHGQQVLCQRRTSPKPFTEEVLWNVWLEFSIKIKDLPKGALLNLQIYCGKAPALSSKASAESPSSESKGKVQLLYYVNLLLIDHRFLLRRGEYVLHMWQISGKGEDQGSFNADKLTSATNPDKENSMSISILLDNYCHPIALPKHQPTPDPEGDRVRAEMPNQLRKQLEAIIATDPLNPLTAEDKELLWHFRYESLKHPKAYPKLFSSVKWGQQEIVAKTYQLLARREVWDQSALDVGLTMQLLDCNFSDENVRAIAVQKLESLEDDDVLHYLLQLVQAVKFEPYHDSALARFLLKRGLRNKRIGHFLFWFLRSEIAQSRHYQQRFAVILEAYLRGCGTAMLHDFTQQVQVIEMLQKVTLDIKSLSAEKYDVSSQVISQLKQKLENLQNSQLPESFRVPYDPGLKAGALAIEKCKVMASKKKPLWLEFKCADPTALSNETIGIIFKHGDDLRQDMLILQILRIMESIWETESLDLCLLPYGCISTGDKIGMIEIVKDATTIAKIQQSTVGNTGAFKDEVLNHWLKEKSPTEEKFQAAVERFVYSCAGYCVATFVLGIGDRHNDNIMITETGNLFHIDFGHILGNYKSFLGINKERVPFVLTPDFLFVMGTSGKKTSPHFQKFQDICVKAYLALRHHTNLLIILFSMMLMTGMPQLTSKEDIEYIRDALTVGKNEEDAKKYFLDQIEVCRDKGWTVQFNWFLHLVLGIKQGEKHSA

| SMILES | IC50 (mTOR) | IC50 (PI3K delta (PI3Kd)) | IC50 [1] | IC50 (PI3Kα) | IC50 (PI3Kβ) | IC50 (PI3Kγ) | IC50 [2] | IC50 [3] |
| --- | --- | --- | --- | --- | --- | --- | --- | --- |
| C[C@@H](CO)NC(=O)Nc1ccc(-c2cc(-c3cc(F)ccc3S(C)(=O)=O)nc(N3CCOC[C@@H]3C)n2)cc1 [Example 74, 1-(4-(6-(5-fluoro-2-(methylsulfonyl)phenyl)-2-((S)-3-methylmorpholino)pyrimidin-4-yl)phenyl)-3-((S)-1-hydroxypropan-2-yl)urea] | 0.1 to 1 µM | ≥ 10 µM | ≥ 10 µM | ≥ 10 µM | ≥ 10 µM | ≥ 10 µM | < 0.1 µM | < 0.1 µM |
| C[C@H]1COCCN1c1cc(-c2cc(F)ccc2S(C)(=O)=O)nc(-c2ccc(NC(=O)NC3CC3)cc2)n1 [Example 77, (S)-1-cyclopropyl-3-(4-(4-(5-fluoro-2-(methylsulfonyl)phenyl)-6-(3-methylmorpholino)pyrimidin-2-yl)phenyl)urea] | 0.1 to 1 µM | ≥ 10 µM | ≥ 10 µM | ≥ 10 µM | ≥ 10 µM | ≥ 10 µM | < 0.1 µM | < 0.1 µM |
| C[C@H]1COCCN1c1cc(-c2cc(F)ccc2S(C)(=O)=O)nc(-c2ccc(NC(=O)NCCO)cc2)n1 [Example 78, (S)-1-(4-(4-(5-fluoro-2-(methylsulfonyl)phenyl)-6-(3-methylmorpholino)pyrimidin-2-yl)phenyl)-3-(2-hydroxyethyl)urea] | < 0.1 µM | ≥ 10 µM | ≥ 10 µM | ≥ 10 µM | ≥ 10 µM | ≥ 10 µM | < 0.1 µM | < 0.1 µM |
